{"source": "paper PMC12876586", "about": "“Chronological lifespan extension and nucleotide salvage inhibition in yeast by isonicotinamide supplementation” (The Journal of Biological Chemistry, 2026)", "assay_type_in_all_cases": "biochemical", "key": {"Pho8 [1]": {"target": "T1, Pho8 (Saccharomyces cerevisiae, UniProt P11491)", "T1 construct": "native enzyme in whole cell extract of pho13Δ strain (Pho8 the remaining alkaline phosphatase)", "T1 sequence (P11491 1-534)": "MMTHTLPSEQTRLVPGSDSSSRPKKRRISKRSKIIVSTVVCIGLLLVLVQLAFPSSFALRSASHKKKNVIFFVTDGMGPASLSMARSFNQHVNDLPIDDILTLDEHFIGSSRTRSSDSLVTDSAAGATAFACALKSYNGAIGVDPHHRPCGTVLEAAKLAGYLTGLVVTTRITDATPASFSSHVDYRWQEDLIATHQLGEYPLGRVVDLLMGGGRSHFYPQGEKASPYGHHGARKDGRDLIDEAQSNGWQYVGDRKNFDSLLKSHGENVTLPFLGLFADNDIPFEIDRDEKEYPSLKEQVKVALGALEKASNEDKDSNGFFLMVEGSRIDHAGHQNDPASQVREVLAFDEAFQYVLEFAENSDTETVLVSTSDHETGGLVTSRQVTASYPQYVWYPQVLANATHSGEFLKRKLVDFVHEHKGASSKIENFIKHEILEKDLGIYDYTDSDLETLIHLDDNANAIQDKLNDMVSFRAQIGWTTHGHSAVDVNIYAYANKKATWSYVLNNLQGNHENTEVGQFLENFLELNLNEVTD", "experiment": "pNPP hydrolysis, A400, whole cell extract of pho13Δ", "conditions": "pNPP substrate, Mg2+, Zn2+, pH 8.8, 37 °C, 15 min; weak inhibitor"}, "Sdt1 [2]": {"target": "T2, Sdt1 (Saccharomyces cerevisiae, UniProt P53078)", "T2 construct": "recombinant, C-terminal His tag, commercial (Echelon Biosciences)", "T2 sequence (P53078 whole entry)": "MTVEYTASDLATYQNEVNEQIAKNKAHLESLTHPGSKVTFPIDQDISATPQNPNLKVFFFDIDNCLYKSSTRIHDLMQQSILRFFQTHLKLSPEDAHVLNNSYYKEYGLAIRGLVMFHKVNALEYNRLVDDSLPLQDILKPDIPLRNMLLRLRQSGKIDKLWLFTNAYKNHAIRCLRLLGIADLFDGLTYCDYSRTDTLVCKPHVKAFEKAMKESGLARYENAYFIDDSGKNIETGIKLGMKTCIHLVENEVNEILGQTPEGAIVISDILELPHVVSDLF", "experiment": "malachite green phosphate release", "conditions": "100 μM CMP (also inhibited with NMN), 5 mM MgCl2, pH 7.5, 37 °C, 30 min; mM INAM"}, "Phm8": {"target": "T3, Phm8 (Saccharomyces cerevisiae, UniProt P40025)", "T3 construct": "pET-16b (NdeI), E. coli BL21(DE3), C-terminal 10xHis as printed, Ni-NTA purified", "T3 sequence (P40025 1-321)": "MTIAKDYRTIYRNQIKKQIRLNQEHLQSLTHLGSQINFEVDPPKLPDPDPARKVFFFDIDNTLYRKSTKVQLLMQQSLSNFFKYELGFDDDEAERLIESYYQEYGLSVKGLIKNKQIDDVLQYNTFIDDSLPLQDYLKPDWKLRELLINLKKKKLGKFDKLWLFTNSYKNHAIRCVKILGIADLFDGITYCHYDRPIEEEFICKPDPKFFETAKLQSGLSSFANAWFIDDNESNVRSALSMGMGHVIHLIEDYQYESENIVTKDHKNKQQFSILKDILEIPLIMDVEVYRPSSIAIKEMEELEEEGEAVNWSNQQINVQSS", "experiment": "malachite green phosphate release", "conditions": "100 μM CMP, 5 mM MgCl2, pH 7.5, 37 °C, 30 min; mM INAM"}, "Pho13 [3]": {"target": "T4, Pho13 (Saccharomyces cerevisiae, UniProt P19881)", "T4 construct": "native enzyme in whole cell extract of pho8Δ strain (Pho13 the remaining alkaline phosphatase)", "T4 sequence (P19881 1-312)": "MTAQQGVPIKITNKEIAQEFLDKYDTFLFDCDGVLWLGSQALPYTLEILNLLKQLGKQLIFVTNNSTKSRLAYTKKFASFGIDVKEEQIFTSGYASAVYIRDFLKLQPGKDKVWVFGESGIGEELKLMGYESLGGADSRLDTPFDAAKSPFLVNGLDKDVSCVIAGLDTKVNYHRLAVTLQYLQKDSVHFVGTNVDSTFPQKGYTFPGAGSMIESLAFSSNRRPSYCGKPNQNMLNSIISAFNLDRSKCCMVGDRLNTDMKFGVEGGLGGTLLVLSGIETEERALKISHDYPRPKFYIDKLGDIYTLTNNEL", "experiment": "pNPP hydrolysis, A400, whole cell extract of pho8Δ", "conditions": "pNPP substrate, Mg2+, Zn2+, pH 8.8, 37 °C, 15 min; weak inhibitor"}, "Pho8 [4]": {"target": "T1, Pho8", "experiment": "pNPP hydrolysis, A400, whole cell extract of pho13Δ", "conditions": "Mg2+, Zn2+, pH 8.8, 37 °C, 15 min"}, "Pho13 [5]": {"target": "T4, Pho13", "experiment": "pNPP hydrolysis, A400, whole cell extract of pho8Δ", "conditions": "Mg2+, Zn2+, pH 8.8, 37 °C, 15 min"}, "Sdt1 [6]": {"target": "T2, Sdt1", "experiment": "malachite green phosphate release", "conditions": "100 μM substrate, 5 mM MgCl2, pH 7.5, 37 °C, 30 min"}, "Sdt1 [7]": {"target": "T2, Sdt1", "experiment": "malachite green phosphate release", "conditions": "activator; 100 μM NMN, 5 mM MgCl2, pH 7.5, 37 °C, 30 min; mM NAM"}}}
{"smiles": "NC(=O)c1ccncc1", "note": "[isonicotinamide]", "values": [{"measurement": "inhibition of alkaline phosphatase activity", "setting": "Pho8 [1]", "value": "suggesting that Pho8 and Pho13 are both weak inhibitory targets"}, {"measurement": "inhibition of nucleotidase activity", "setting": "Sdt1 [2]", "value": "Sdt1 and Phm8 activity on CMP and NMN was significantly inhibited by INAM"}, {"measurement": "inhibition of nucleotidase activity", "setting": "Phm8", "value": "INAM inhibition of recombinant Sdt1 and Phm8 nucleotidase activity on CMP in vitro"}, {"measurement": "inhibition of alkaline phosphatase activity", "setting": "Pho13 [3]", "value": "suggesting that Pho8 and Pho13 are both weak inhibitory targets"}]}
{"smiles": "O=[N+]([O-])c1ccc(OP(=O)(O)O)cc1", "note": "[p-nitrophenyl phosphate]", "values": [{"measurement": "pNPP hydrolysis, A400, whole cell extract of pho13Δ", "setting": "Pho8 [4]", "value": "both utilize pNPP as a substrate in vitro"}, {"measurement": "pNPP hydrolysis, A400, whole cell extract of pho8Δ", "setting": "Pho13 [5]", "value": "both utilize pNPP as a substrate in vitro"}]}
{"smiles": "NC(=O)c1ccc[n+]([C@@H]2O[C@H](COP(=O)(O)O)[C@@H](O)[C@H]2O)c1", "note": "[nicotinamide mononucleotide]", "values": [{"measurement": "malachite green phosphate release", "setting": "Sdt1 [6]", "value": "INAM inhibition of recombinant Sdt1 nucleotidase activity on NMN in vitro"}]}
{"smiles": "NC(=O)c1cccnc1", "note": "[nicotinamide]", "values": [{"measurement": "stimulation of nucleotidase activity", "setting": "Sdt1 [7]", "value": "NAM caused significant dose-dependent stimulation of Sdt1 nucleotidase activity with NMN as substrate"}]}
